The structures appear in SMILES notation. A value given as a limit tells only on which side of the number the result lay.

Sequence of JAK2 (O60674 whole entry): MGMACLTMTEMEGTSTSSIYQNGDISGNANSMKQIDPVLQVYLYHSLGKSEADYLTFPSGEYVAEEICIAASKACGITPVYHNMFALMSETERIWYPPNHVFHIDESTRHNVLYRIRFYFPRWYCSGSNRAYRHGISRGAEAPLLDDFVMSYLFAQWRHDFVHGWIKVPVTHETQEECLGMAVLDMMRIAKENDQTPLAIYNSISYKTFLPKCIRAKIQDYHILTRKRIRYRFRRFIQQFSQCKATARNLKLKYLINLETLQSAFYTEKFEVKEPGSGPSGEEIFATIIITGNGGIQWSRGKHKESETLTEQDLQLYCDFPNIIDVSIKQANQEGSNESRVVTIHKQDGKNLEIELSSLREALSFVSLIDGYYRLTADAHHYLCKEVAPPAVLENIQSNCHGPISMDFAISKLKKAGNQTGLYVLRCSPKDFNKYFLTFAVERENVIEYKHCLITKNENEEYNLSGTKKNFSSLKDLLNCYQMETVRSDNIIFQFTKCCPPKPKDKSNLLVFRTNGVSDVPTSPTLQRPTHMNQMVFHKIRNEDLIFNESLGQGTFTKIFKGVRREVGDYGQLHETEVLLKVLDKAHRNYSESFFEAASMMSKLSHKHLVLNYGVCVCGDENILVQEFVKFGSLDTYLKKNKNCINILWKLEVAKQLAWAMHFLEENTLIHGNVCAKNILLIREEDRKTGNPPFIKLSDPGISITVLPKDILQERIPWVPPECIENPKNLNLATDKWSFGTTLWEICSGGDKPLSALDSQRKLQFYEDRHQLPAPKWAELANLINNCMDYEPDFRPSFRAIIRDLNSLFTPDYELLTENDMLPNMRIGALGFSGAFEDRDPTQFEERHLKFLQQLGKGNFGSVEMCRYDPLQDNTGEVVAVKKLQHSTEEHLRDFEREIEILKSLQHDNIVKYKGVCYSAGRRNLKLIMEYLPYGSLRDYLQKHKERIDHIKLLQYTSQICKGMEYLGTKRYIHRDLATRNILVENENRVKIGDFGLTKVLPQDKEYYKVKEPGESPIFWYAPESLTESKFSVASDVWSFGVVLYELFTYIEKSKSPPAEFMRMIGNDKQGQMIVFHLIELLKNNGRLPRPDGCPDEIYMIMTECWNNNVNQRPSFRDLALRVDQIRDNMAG

One assay has as its target JAK2 (Homo sapiens (Human), UniProt O60674). The assay is described as follows: JAK2 Z-Lyte biochemical assay. The following applies: commercial JAK2 Z-Lyte assay from Invitrogen. How it is done: The JAK2 Z-Lyte biochemical assay was performed according to manufacturer's instructions (Life Technologies).
As a reminder, the IC50 is the midpoint of a concentration-inhibition curve. `Cc1ccc(C(=O)Nc2ccc(F)cc2F)cc1-c1ccc2nc(NC(=O)C3CC3)sc2n1` [Compound I-1, 3-(2-(cyclopropanecarboxamido)thiazolo[5,4-b]pyridin-5-yl)-N-(2,4-difluorophenyl)-4-methylbenzamide] had an IC50 of over 10 µM.
As to `CC(=O)Nc1nc2ccc(-c3cc(C(=O)Nc4ccc(F)cc4F)ccc3C)nc2s1` [Compound I-2, 3-(2-acetamidothiazolo[5,4-b]pyridin-5-yl)-N-(2,4-difluorophenyl)-4-methylbenzamide], the IC50 is over 10 µM.
For `Cc1ccc(NC(=O)Nc2ccc(F)cc2F)cc1-c1ccc2nc(NC(=O)C3CC3)sc2n1` [Compound I-3, N-(5-(5-(3-(2,4-difluorophenyl)ureido)-2-methylphenyl)thiazolo[5,4-b]pyridin-2-yl)cyclopropanecarboxamide], the IC50 is over 10 µM.
The compound `CCN1CCN(Cc2cc(C(=O)Nc3ccc(C)c(-c4ccc5nc(NC(=O)C6CC6)sc5c4)c3)cc(C(F)(F)F)c2)CC1` [Compound I-4] displayed an IC50 of 0.881 µM.
Turning to `CCN1CCN(C(=O)c2cc(NC(=O)c3ccc(C)c(-c4ccc5nc(NC(=O)C6CC6)sc5n4)c3)cc(C(F)(F)F)c2)CC1` [Compound I-6, 3-(2-(cyclopropanecarboxamido)thiazolo[5,4-b]pyridin-5-yl)-N-(3-(4-ethylpiperazine-1-carbonyl)-5-(trifluoromethyl)phenyl)-4-methylbenzamide], the IC50 turned out to be 1.45 µM.
In turn, `CCN1CCN(Cc2cc(C(=O)Nc3cccc(-c4ccc5nc(NC(=O)C6CC6)sc5n4)c3)cc(C(F)(F)F)c2)CC1` [Compound I-7, N-(3-(2-(cyclopropanecarboxamido)thiazolo[5,4-b]pyridin-5-yl)phenyl)-3-((4-ethylpiperazin-1-yl)methyl)-5-(trifluoromethyl)benzamide] gave an IC50 of 0.55 µM.
The compound `CCN1CCN(Cc2cc(C(=O)Nc3ccc(C)c(-c4ccc5nc(NC(=O)C6CC6)sc5n4)c3)cc(C(F)(F)F)c2)CC1` [Compound I-8, N-(3-(2-(cyclopropanecarboxamido)thiazolo[5,4-b]pyridin-5-yl)-4-methylphenyl)-3-((4-ethylpiperazin-1-yl)methyl)-5-(trifluoromethyl)benzamide] yielded an IC50 of 0.639 µM.
Regarding `CCN1CCN(Cc2cc(NC(=O)Nc3ccc(C)c(-c4ccc5nc(NC(=O)C6CC6)sc5n4)c3)cc(C(F)(F)F)c2)CC1` [Compound I-9, N-(5-(5-(3-(3-((4-ethylpiperazin-1-yl)methyl)-5-(trifluoromethyl)phenyl)ureido)-2-methylphenyl)thiazolo[5,4-b]pyridin-2-yl)cyclopropanecarboxamide], the IC50 was over 10 µM.
In turn, `O=C(Nc1nc2ccc(-c3ccc4c(c3)N(C(=O)Nc3ccc(F)cc3F)CC4)nc2s1)C1CC1` [Compound I-10, 6-(2-(cyclopropanecarboxamido)thiazolo[5,4-b]pyridin-5-yl)-N-(2,4-difluorophenyl)indoline-1-carboxamide] came in with an IC50 of over 10 µM.
`CCN1CCN(Cc2cc(C(=O)N3CCc4ccc(-c5ccc6nc(NC(=O)C7CC7)sc6n5)cc43)cc(C(F)(F)F)c2)CC1` [Compound I-11, N-(5-(1-(3-((4-ethylpiperazin-1-yl)methyl)-5-(trifluoromethyl)benzoyl)indolin-6-yl)thiazolo[5,4-b]pyridin-2-yl)cyclopropanecarboxamide] showed an IC50 of over 10 µM.
For `CCN1CCN(Cc2cc(NC(=O)N3CCc4ccc(-c5ccc6nc(NC(=O)C7CC7)sc6n5)cc43)cc(C(F)(F)F)c2)CC1` [Compound I-12, 6-(2-(cyclopropanecarboxamido)thiazolo[5,4-b]pyridin-5-yl)-N-(3-((4-ethylpiperazin-1-yl)methyl)-5-(trifluoromethyl)phenyl)indoline-1-carboxamide], the half-maximal inhibitory concentration (IC50) was over 10 µM.
On to `CCN1CCN(Cc2cc(C(=O)N3Cc4ccc(-c5ccc6nc(NC(=O)C7CC7)sc6n5)cc4C3)cc(C(F)(F)F)c2)CC1` [Compound I-13, N-(5-(2-(3-((4-ethylpiperazin-1-yl)methyl)-5-(trifluoromethyl)benzoyl)isoindolin-5-yl)thiazolo[5,4-b]pyridin-2-yl)cyclopropanecarboxamide], for which the IC50 is over 10 µM.
Compound `CCN1CCN(Cc2cc(NC(=O)N3Cc4ccc(-c5ccc6nc(NC(=O)C7CC7)sc6n5)cc4C3)cc(C(F)(F)F)c2)CC1` [Compound I-14, 5-(2-(cyclopropanecarboxamido)thiazolo[5,4-b]pyridin-5-yl)-N-(3-((4-ethylpiperazin-1-yl)methyl)-5-(trifluoromethyl)phenyl)isoindoline-2-carboxamide] yielded an IC50 of over 10 µM.
`O=C(Nc1nc2ccc(-c3ccc4c(c3)CN(C(=O)Nc3ccc(F)cc3F)C4)nc2s1)C1CC1` [Compound I-15, 5-(2-(cyclopropanecarboxamido)thiazolo[5,4-b]pyridin-5-yl)-N-(2,4-difluorophenyl)isoindoline-2-carboxamide] displayed an IC50 of over 10 µM.
`Cc1ccc(NC(=O)Nc2ccc(F)cc2F)cc1Oc1ccc2nc(NC(=O)C3CC3)sc2n1` [Compound I-16, N-(5-(5-(3-(2,4-difluorophenyl)ureido)-2-methylphenoxy)thiazolo[5,4-b]pyridin-2-yl)cyclopropanecarboxamide] yielded an IC50 of over 10 µM.
Turning to `CCN1CCN(Cc2ccc(NC(=O)Nc3ccc(C)c(Oc4ccc5nc(NC(=O)C6CC6)sc5n4)c3)cc2C(F)(F)F)CC1` [Compound I-17, N-(5-(5-(3-(4-((4-ethylpiperazin-1-yl)methyl)-3-(trifluoromethyl)phenyl)ureido)-2-methylphenoxy)thiazolo[5,4-b]pyridin-2-yl)cyclopropanecarboxamide], the IC50 was over 10 µM.
On the same count and under the same terms, the same measure for `CCN1CCN(Cc2cc(C(=O)Nc3ccc(C)c(Oc4ccc5nc(NC(=O)C6CC6)sc5n4)c3)cc(C(F)(F)F)c2)CC1` [Compound I-19, N-(3-((2-(cyclopropanecarboxamido)thiazolo[5,4-b]pyridin-5-yl)oxy)-4-methylphenyl)-3-((4-ethylpiperazin-1-yl)methyl)-5-(trifluoromethyl)benzamide]: 0.824 µM.
As to `CCN1CCN(Cc2cc(NC(=O)c3ccc(C)c(Oc4ccc5nc(NC(=O)C6CC6)sc5n4)c3)cc(C(F)(F)F)c2)CC1` [Compound I-20, 3-((2-(cyclopropanecarboxamido)thiazolo[5,4-b]pyridin-5-yl)oxy)-N-(3-((4-ethylpiperazin-1-yl)methyl)-5-(trifluoromethyl)phenyl)-4-methylbenzamide], the midpoint of inhibition, the IC50, lay at 2.83 µM.
`CCN1CCN(Cc2ccc(NC(=O)N3Cc4ccc(Oc5ccc6nc(NC(=O)C7CC7)sc6n5)cc4C3)cc2C(F)(F)F)CC1` [Compound I-21, 5-((2-(cyclopropanecarboxamido)thiazolo[5,4-b]pyridin-5-yl)oxy)-N-(4-((4-ethylpiperazin-1-yl)methyl)-3-(trifluoromethyl)phenyl)isoindoline-2-carboxamide] displayed an IC50 of over 10 µM.
The same measure, in the same setting: then `CCN1CCN(Cc2cc(NC(=O)N3Cc4ccc(Oc5ccc6nc(NC(=O)C7CC7)sc6n5)cc4C3)cc(C(F)(F)F)c2)CC1` [Compound I-22, 5-((2-(cyclopropanecarboxamido)thiazolo[5,4-b]pyridin-5-yl)oxy)-N-(3-((4-ethylpiperazin-1-yl)methyl)-5-(trifluoromethyl)phenyl)isoindoline-2-carboxamide], with over 10 µM; and `O=C(Nc1nc2ccc(Oc3ccc4c(c3)CN(C(=O)Nc3ccc(F)cc3F)C4)nc2s1)C1CC1` [Compound I-23, 5-((2-(cyclopropanecarboxamido)thiazolo[5,4-b]pyridin-5-yl)oxy)-N-(2,4-difluorophenyl)isoindoline-2-carboxamide], with over 10 µM; and `O=C(Nc1nc2ccc(Oc3ccc4nc(Nc5ccc(F)cc5F)[nH]c4c3)nc2s1)C1CC1` [Compound I-24, N-(5-((2-((2,4-difluorophenyl)amino)-1H-benzo[d]imidazol-6-yl)oxy)thiazolo[5,4-b]pyridin-2-yl)cyclopropanecarboxamide], with over 10 µM.
As for `CCN1CCN(Cc2ccc(Nc3nc4ccc(Oc5ccc6nc(NC(=O)C7CC7)sc6n5)cc4[nH]3)cc2C(F)(F)F)CC1` [Compound I-25, N-(5-((2-((4-((4-ethylpiperazin-1-yl)methyl)-3-(trifluoromethyl)phenyl)amino)-1H-benzo[d]imidazol-6-yl)oxy)thiazolo[5,4-b]pyridin-2-yl)cyclopropanecarboxamide], 0.63 µM corresponded to half-maximal inhibition (IC50).

The test system of another assay is cell lines or patient-derived xenografts from patients with CRLF2-rearranged B-ALL.
Test: not given
The following applies: cited from earlier work.
`N#CC[C@H](C1CCCC1)n1cc(-c2ncnc3[nH]ccc23)cn1` [Ruxolitinib]: the IC50 was over 20 µM.

A further assay concerns JAK2/STAT5. Put plainly: Western blots of JAK2/STAT5 inhibition in cells. It is filed as cell-based. The settings on record: cells treated with indicated concentrations for 4 hours; immunoblotting pJAK2, pSTAT5, c-Myc. The procedure:
FIG. 1. […] Cells were treated with the indicated concentrations of JAK2 inhibitor for 4 hours. Cell pellets were lysed with Cell Lysis Buffer (Cell Signaling Technology) and then immunoblotting was performed with pJAK2 (#3771), pSTAT5 (#4322), c-Myc (#9402), JAK2 (#3230), STAT5 (#9363 or 94205), and β-actin (#4967 or 12620) antibodies from Cell Signaling Technology.
FIG. 2. […] Cells were treated with the indicated concentrations of JAK2 inhibitor for 4 hours. Cell pellets were lysed with Cell Lysis Buffer (Cell Signaling Technology) and then immunoblotting was performed with pJAK2 (#3771), pSTAT5 (#4322), c-Myc (#9402), JAK2 (#3230), STAT5 (#9363 or 94205), and β-actin (#4967 or 12620) antibodies from Cell Signaling Technology.
For orientation: In western blotting, separated proteins are transferred to a membrane and probed.
Regarding `CCN1CCN(C(=O)c2cc(NC(=O)c3ccc(C)c(-c4ccc5nc(NC(=O)C6CC6)sc5n4)c3)cc(C(F)(F)F)c2)CC1` [Compound I-6, 3-(2-(cyclopropanecarboxamido)thiazolo[5,4-b]pyridin-5-yl)-N-(3-(4-ethylpiperazine-1-carbonyl)-5-(trifluoromethyl)phenyl)-4-methylbenzamide], the “JAK2/STAT5 inhibition (Western blots)” value is on record as “JAK2/STAT5 inhibition”.
As for `CCN1CCN(Cc2cc(C(=O)Nc3ccc(C)c(-c4ccc5nc(NC(=O)C6CC6)sc5n4)c3)cc(C(F)(F)F)c2)CC1` [Compound I-8, N-(3-(2-(cyclopropanecarboxamido)thiazolo[5,4-b]pyridin-5-yl)-4-methylphenyl)-3-((4-ethylpiperazin-1-yl)methyl)-5-(trifluoromethyl)benzamide], the “JAK2/STAT5 inhibition (Western blots)” value is “JAK2/STAT5 inhibition”.
